From PMC7281280, “Is the Way to Fight Cancer Paved with Gold? Metal-Based Carbene Complexes with Multiple and Fascinating Biological Features” (Pharmaceuticals, 2020)

System: MDA-MB-231 cells
Settings: at IC50 value, 24 h

## C[n+]1c(Cl)c(Cl)n(CC(O)c2ccccc2)[c]1[Au-][c]1n(CC(O)c2ccccc2)c(Cl)c(Cl)[n+]1C.[Cl][Au-][Cl] (racemic) [AuL7, bis-[4,5-dichloro-(N-methyl-N’(2-hydroxy-2-phenyl)ethyl-imidazole-2-ylidene)gold(I)]^+[dichloro-gold]^−]
  apoptosis (TUNEL): green nuclear fluorescence
